Source: ChEMBL document CHEMBL3734730, “Discovery of novel 2-benzylisoquinolin-1(2H)-ones as potent vasodilative agents” (Bioorg Med Chem Lett, 2015)
Calls of active or inactive are those of the source. No cut-off for these calls is given here.

What was measured:
[1] = Vasodilative activity in isolated Sprague-Dawley rat Superior mesenteric arterial ring assessed as reduction in KCl-induced contraction at 10^-5 by wire myograph method; format: functional; set-up: scale not given: the % may be the effect or the level left
[2] = Vasodilative activity in isolated Sprague-Dawley rat Superior mesenteric arterial ring assessed as reduction in KCl-induced contraction by wire myograph method relative to control; format: functional
[3] = tested on: Rattus norvegicus; assay: Antihypertensive activity in SHR rat assessed as reduced systolic pressure at 8 mg/kg, po after 2 hrs by tail-cuff plethysmography (reference value: 2 mmHg); format: functional, Blood
[4] = Vasodilative activity in isolated Sprague-Dawley rat second-order mesenteric arterial ring assessed as reduction in KCl-induced contraction by wire myograph method relative to control; format: functional; details: Mesenteric artery
[5] = tested on: Rattus norvegicus; assay: Antihypertensive activity in SHR rat assessed as reduced systolic pressure at 4 mg/kg, po after 1 hr by tail-cuff plethysmography; format: functional, Blood
[6] = Vasodilative activity in isolated Sprague-Dawley rat third-order mesenteric arterial ring assessed as reduction in KCl-induced contraction by wire myograph method relative to control; format: functional; details: Mesenteric artery
[7] = tested on: Rattus norvegicus; assay: Antihypertensive activity in SHR rat assessed as reduced diastolic pressure at 4 mg/kg, po after 0.5 hrs by tail-cuff plethysmography; format: functional, Blood
[8] = tested on: Rattus norvegicus; assay: Antihypertensive activity in SHR rat assessed as reduced diastolic pressure at 4 mg/kg, po after 4 hrs by tail-cuff plethysmography; format: functional
[9] = Vasodilative activity in isolated Sprague-Dawley rat mesenteric arterial ring assessed as reduction in phenylephrine-induced contraction at 10 uM pretreated for 30 mins followed by addition of 10^-8 to 10^-4 M phenylephrine by wire myograph method relative to control; format: functional; details: Mesenteric artery
[10] = tested on: Rattus norvegicus; assay: Antihypertensive activity in SHR rat assessed as reduced diastolic pressure at 8 mg/kg, po after 2 hrs by tail-cuff plethysmography (reference value: 2 mmHg); format: functional, Blood
[11] = Vasodilative activity in isolated Sprague-Dawley rat cerebral basilar arterial ring assessed as reduction in KCl-induced contraction by wire myograph method relative to control; format: functional; details: Basilar artery
[12] = tested on: Rattus norvegicus; assay: Antihypertensive activity in SHR rat assessed as reduced systolic pressure at 4 mg/kg, po after 0.5 hrs by tail-cuff plethysmography; format: functional
[13] = tested on: Rattus norvegicus; assay: Antihypertensive activity in po-dosed SHR rat assessed as reduced diastolic pressure after 2 hrs by tail-cuff plethysmography; format: functional, organism-based; details: Blood
[14] = Vasodilative activity in isolated Sprague-Dawley rat renal arterial ring assessed as reduction in KCl-induced contraction by wire myograph method relative to control; format: functional; details: Renal artery
[15] = tested on: Rattus norvegicus; assay: Antihypertensive activity in SHR rat assessed as reduced systolic pressure at 4 mg/kg, po after 5 hrs by tail-cuff plethysmography; format: functional, Blood
[16] = tested on: Rattus norvegicus; assay: Antihypertensive activity in SHR rat assessed as reduced systolic pressure at 2 mg/kg, po after 2 hrs by tail-cuff plethysmography (reference value: 2 mmHg); format: functional, Blood
[17] = tested on: Rattus norvegicus; assay: Antihypertensive activity in SHR rat assessed as reduced diastolic pressure at 2 mg/kg, po after 2 hrs by tail-cuff plethysmography (reference value: 2 mmHg); format: functional, Blood
[18] = tested on: Rattus norvegicus; assay: Antihypertensive activity in SHR rat assessed as reduced diastolic pressure at 4 mg/kg, po after 1 hr by tail-cuff plethysmography; format: functional
[19] = tested on: Rattus norvegicus; assay: Antihypertensive activity in SHR rat assessed as reduced systolic pressure at 4 mg/kg, po after 2 hrs by tail-cuff plethysmography (reference value: 2 mmHg); format: functional, Blood
[20] = tested on: Rattus norvegicus; assay: Antihypertensive activity in SHR rat assessed as reduced systolic pressure at 1 mg/kg, po after 2 hrs by tail-cuff plethysmography (reference value: 2 mmHg); format: functional, Blood
[21] = Vasodilative activity in isolated Sprague-Dawley rat coronary artery assessed as reduction in KCl-induced contraction by wire myograph method relative to control; format: functional, tissue-based
[22] = tested on: Rattus norvegicus; assay: Antihypertensive activity in SHR rat assessed as reduced diastolic pressure at 1 mg/kg, po after 2 hrs by tail-cuff plethysmography (reference value: 2 mmHg); format: functional, Blood
[23] = tested on: Rattus norvegicus; assay: Antihypertensive activity in po-dosed SHR rat assessed as reduced systolic pressure after 2 hrs by tail-cuff plethysmography; format: functional, organism-based; details: Blood
[24] = tested on: Rattus norvegicus; assay: Antihypertensive activity in SHR rat assessed as reduced diastolic pressure at 4 mg/kg, po after 2 hrs by tail-cuff plethysmography (reference value: 2 mmHg); format: functional, Blood

For `COc1cc2ccn(Cc3cccc(F)c3)c(=O)c2cc1OC`, the Activity [1] was 54%, the EC50 [2] was 3.98 µM and the Rmax [2] was 54.2%.
`COC(=O)c1cccc(Cn2ccc3cc(OC)c(OC)cc3c2=O)c1` showed an Activity [1] of 37.6%.
`COc1ccc(Cn2ccc3cc(OC)ccc3c2=O)cc1` showed an Activity [1] of 83.7%, an EC50 [2] of 0.794 µM and an Rmax [2] of 90.8%.
Work on `O=c1c2ccc(O)cc2ccn1Cc1ccccc1` yielded an Activity [1] of 64.3%, an EC50 [2] of 3.16 µM and an Rmax [2] of 74.2%.
Work on `O=C(O)c1cccc(Cn2ccc3cc4c(cc3c2=O)OCO4)c1` yielded an Activity [1] of 34.2%.
Molecule `O=c1c2cc(O)ccc2ccn1Cc1ccccc1` has an Activity [1] of 48.5%, an EC50 [2] of 25.1 µM and an Rmax [2] of 60.6%.
Molecule `COc1cc2ccn(Cc3ccc(F)cc3)c(=O)c2cc1OC` has an Activity [1] of 35.2%.
Molecule `COC(=O)c1cccc(Cn2ccc3cc4c(cc3c2=O)OCO4)c1` has an Activity [1] of 50.6%, an EC50 [2] of 3.98 µM and an Rmax [2] of 51.4%.
With `COc1cccc2ccn(Cc3ccccc3)c(=O)c12` the Activity [1] was 63.2%, the EC50 [2] was 2.51 µM and the Rmax [2] was 71.3%.
`COc1cc(OC)c2c(=O)n(Cc3ccc(OC)c(OC)c3)ccc2c1` showed an Activity [1] of 66.8%, an EC50 [2] of 1 µM and an Rmax [2] of 76.4%.
`COc1cc2ccn(Cc3ccccc3)c(=O)c2cc1OC` showed an Activity [1] of 42.3%.
With `COc1ccc2c(=O)n(Cc3ccc(OCc4ccc(F)cc4)c(OC)c3)ccc2c1` the Activity [1] was 82.4%, the EC50 [2] was 0.398 µM and the Rmax [2] was 94.3%.
For `COc1ccc2c(=O)n(Cc3ccc(OC)c(OC)c3)ccc2c1`, the Activity [1] was 59%, the EC50 [2] was 3.16 µM and the Rmax [2] was 84.7%.
For `COc1cc(OC)c2c(=O)n(Cc3cc(OC)c(OC)c(OC)c3)ccc2c1`, the Activity [1] was 53.1%, the EC50 [2] was 6.31 µM and the Rmax [2] was 89.5%.
`COc1cc2ccn(Cc3cccc(N)c3)c(=O)c2cc1OC` gave an Activity [1] of 51%, an EC50 [2] of 5.01 µM and an Rmax [2] of 52.3%.
`COc1ccc(Cn2ccc3cccc(OC)c3c2=O)cc1` gave an Activity [3] of 46 mmHg, an EC50 [4] of 0.02 µM and an Emax [4] of 95.4%. It also gave an Activity [5] of 7 mmHg, an EC50 [6] of 0.126 µM and an Emax [6] of 99.9%. The Activity [7] was 0 mmHg, the Activity [8] was 10 mmHg and the inhibition [9] was “Active”. The Activity [10] was 53 mmHg, the Activity [1] was 96.3% and the EC50 [11] was 0.398 µM. The Emax [11] was 103%, the Activity [12] was 4 mmHg and the inhibition [13] was “Dose-dependent effect”. For the same molecule, the EC50 [14] was 0.631 µM, the Emax [14] was 122% and the EC50 [2] was 0.2 µM. It also gave an Rmax [2] of 106%, an Activity [15] of 6 mmHg and an Activity [16] of 14 mmHg. For the same molecule, the Activity [17] was 16 mmHg, the Activity [18] was 8 mmHg and the Activity [19] was 38 mmHg. The Activity [20] was 6 mmHg, the EC50 [21] was 2 µM and the Emax [21] was 107%. The Activity [22] was 10 mmHg, the inhibition [23] was “Dose-dependent effect” and the Activity [24] was 44 mmHg.
Molecule `COc1ccc2c(=O)n(Cc3cc(OC)c(OC)c(OC)c3)ccc2c1` has an Activity [1] of 72%, an EC50 [2] of 2 µM and an Rmax [2] of 84%.
With `COc1cc2ccn(Cc3cc(OC)c(OC)c(OC)c3)c(=O)c2cc1OC` the Activity [1] was 48.4%, the EC50 [2] was 15.8 µM and the Rmax [2] was 73.1%.
Work on `COc1cc(O)c2c(=O)n(Cc3ccc(OC)c(OC)c3)ccc2c1` yielded an Activity [1] of 81.3%, an EC50 [2] of 0.501 µM and an Rmax [2] of 91.6%.
With `COc1cc(OC)c2c(=O)n(Cc3ccc(OCc4ccc(F)cc4)c(OC)c3)ccc2c1` the Activity [1] was 74.1%, the EC50 [2] was 0.501 µM and the Rmax [2] was 75.3%.
Work on `COc1cc2ccn(Cc3cccc([N+](=O)[O-])c3)c(=O)c2cc1OC` yielded an Activity [1] of 57.4%, an EC50 [2] of 2 µM and an Rmax [2] of 67.4%.
In the case of `COc1ccc2c(=O)n(Cc3ccccc3)ccc2c1`, the Activity [1] is reported as 60.1%, the EC50 [2] is reported as 2 µM and the Rmax [2] is reported as 61.8%.
With `COc1cc2ccn(Cc3ccc(Cl)c(Cl)c3)c(=O)c2cc1OC` the Activity [1] was 26.6%.
In the case of `COc1cc(Cn2ccc3cccc(OC)c3c2=O)cc(OC)c1OC`, the Activity [3] is reported as 44 mmHg, the inhibition [9] is reported as “Active” and the Activity [10] is reported as 49 mmHg. For the same molecule, the Activity [1] was 93.8%, the inhibition [13] was “Dose-dependent effect” and the EC50 [2] was 0.251 µM. For the same molecule, the Rmax [2] was 98.7%, the Activity [16] was 15 mmHg and the Activity [17] was 12 mmHg. The Activity [19] was 34 mmHg, the Activity [20] was 3 mmHg and the Activity [22] was 1 mmHg. For the same molecule, the inhibition [23] was “Dose-dependent effect” and the Activity [24] was 39 mmHg.
In the case of `CCOC(=O)C1=C(C)NC(C)=C(C(=O)OC)C1c1cccc([N+](=O)[O-])c1` (stereo not given) [NITRENDIPINE], the Activity [1] is reported as 99.9%, the EC50 [2] is reported as 0.000316 µM and the Rmax [2] is reported as 99.8%. It also gave an Activity [16] of 9 mmHg and an Activity [17] of 5 mmHg.
